According to PubChem BioAssay (NCI):
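Interpolation was linear, between the two tested concentrations surrounding the appropriate level; five concentrations were tested over 48 hours in 96-well plates. GI50 is the concentration that inhibits growth by half. Definition used: TGI = concentration required for complete inhibition of growth.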

Key:
Test in all cases: growth of human tumour cells (NCI), 48 h
LOX IMVI melanoma = test system: LOX IMVI melanoma
OVCAR-4 ovarian = test system: OVCAR-4 ovarian
OVCAR-8 ovarian = test system: OVCAR-8 ovarian
OVCAR-5 ovarian = test system: OVCAR-5 ovarian
A498 renal = test system: A498 renal
BT-549 breast = test system: BT-549 breast
OVCAR-3 ovarian = test system: OVCAR-3 ovarian
EKVX NSCLC = test system: EKVX NSCLC
UO-31 renal = test system: UO-31 renal
SN12C renal = test system: SN12C renal

SMILES	GI50 (LOX IMVI melanoma)	TGI (LOX IMVI melanoma)	GI50 (OVCAR-4 ovarian)	TGI (OVCAR-4 ovarian)	GI50 (OVCAR-8 ovarian)	TGI (OVCAR-8 ovarian)	GI50 (OVCAR-5 ovarian)	TGI (OVCAR-5 ovarian)	GI50 (A498 renal)	TGI (A498 renal)	GI50 (BT-549 breast)	TGI (BT-549 breast)	GI50 (OVCAR-3 ovarian)	TGI (OVCAR-3 ovarian)	GI50 (EKVX NSCLC)	TGI (EKVX NSCLC)	GI50 (UO-31 renal)	TGI (UO-31 renal)	GI50 (SN12C renal)	TGI (SN12C renal)
O=C(CC1(O)C(=O)Nc2c(Cl)ccc(Cl)c21)c1ccc(C2CC2)cc1 (stereo not given)	0.392 µM	14 µM	12.8 µM	32.2 µM	1.43 µM	13.4 µM	2.05 µM	16.8 µM	0.183 µM	0.754 µM	0.984 µM	11 µM	3.46 µM	16.6 µM	2.15 µM	20.7 µM	1.58 µM	19.6 µM	2.66 µM	20.4 µM
Nc1cccc2nsnc12	–	> 100 µM	–	> 100 µM	–	> 100 µM	–	> 100 µM	–	> 100 µM	–	> 100 µM	–	> 100 µM	–	> 100 µM	–	> 100 µM	–	> 100 µM
CCNCCNc1cc(-c2cccc(C(F)(F)F)c2)c(C#N)c2nc3ccccc3n12	0.299 µM	1.07 µM	1.6 µM	3.24 µM	1.69 µM	3.23 µM	1.83 µM	3.71 µM	1.64 µM	3.08 µM	2.06 µM	3.75 µM	1.26 µM	2.62 µM	1.75 µM	3.45 µM	0.603 µM	2.07 µM	1.74 µM	3.37 µM
Cc1ccc(-c2cc(/C=N/O)on2)cc1	53.3 µM	> 100 µM	> 100 µM	> 100 µM	> 100 µM	> 100 µM	> 100 µM	> 100 µM	41.3 µM	> 100 µM	49.5 µM	> 100 µM	58.2 µM	> 100 µM	43.3 µM	> 100 µM	36.4 µM	> 100 µM	> 100 µM	> 100 µM
C=C1CO[C@@H]2C[C@@H]1CC/C(C)=C/CC/C(C)=C/CC[C@@]2(C)O	2.25 µM	21.4 µM	21.7 µM	43.4 µM	20.9 µM	44.8 µM	18.7 µM	39.9 µM	35.8 µM	> 76.2 µM	24.6 µM	51.5 µM	24.1 µM	51.6 µM	22.4 µM	45.2 µM	17.1 µM	36.5 µM	20 µM	43.7 µM
O=[N+]([O-])c1ccc(-c2ccccc2)c([As](=O)(O)O)c1	8.15 µM	46.9 µM	14.6 µM	52 µM	22.6 µM	> 100 µM	28.4 µM	> 100 µM	16.5 µM	67 µM	47.2 µM	> 100 µM	10.4 µM	29.3 µM	15.9 µM	> 100 µM	12.3 µM	44.8 µM	12.7 µM	> 100 µM
CS(=O)(=O)c1nc(Cl)c(Cl)c(C#N)c1Cl	–	4.3 µM	–	3.34 µM	–	9.77 µM	–	9.41 µM	–	35.3 µM	–	3.37 µM	–	4.73 µM	–	27.4 µM	–	4.31 µM	–	5.9 µM
